Tested on: SEM cells
Test: cell viability relative to DMSO control; higher = less cytotoxic
Conditions: 48 h
Method in brief: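 In 1536-well plates, 5 μl of leukemia cells were seeded per well: 500 cells/well for NOMO1 or SEM and 1000 cells/well for P12-Ichikawa. Each line had first been adapted for at least four passages in each medium. Library compounds in DMSO were pin-dosed at 11 threefold concentrations between 47 μM and 0.79 nM, and CellTiter-Glo One luminescence was read after 48 h at 37°C. Viability is a per-plate percentage relative to DMSO wells, with cell-free wells as background.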

[1] = HPLM + 10% dialyzed FBS, 0.000781 µM
[2] = HPLM + 10% dialyzed FBS, 0.00234 µM
[3] = HPLM + 10% dialyzed FBS, 0.00702 µM
[4] = HPLM + 10% dialyzed FBS, 0.0211 µM
[5] = HPLM + 10% dialyzed FBS, 0.0632 µM
[6] = HPLM + 10% dialyzed FBS, 0.19 µM
[7] = HPLM + 10% dialyzed FBS, 0.569 µM
[8] = HPLM + 10% dialyzed FBS, 1.71 µM
[9] = HPLM + 10% dialyzed FBS, 5.12 µM
[10] = HPLM + 10% dialyzed FBS, 15.4 µM
[11] = HPLM + 10% dialyzed FBS, 46.1 µM
[12] = RPMI 5 mM glucose + 10% FBS, 0.000781 µM
[13] = RPMI 5 mM glucose + 10% FBS, 0.00234 µM
[14] = RPMI 5 mM glucose + 10% FBS, 0.00702 µM
[15] = RPMI 5 mM glucose + 10% FBS, 0.0211 µM
[16] = RPMI 5 mM glucose + 10% FBS, 0.0632 µM
[17] = RPMI 5 mM glucose + 10% FBS, 0.19 µM
[18] = RPMI 5 mM glucose + 10% FBS, 0.569 µM
[19] = RPMI 5 mM glucose + 10% FBS, 1.71 µM
[20] = RPMI 5 mM glucose + 10% FBS, 5.12 µM
[21] = RPMI 5 mM glucose + 10% FBS, 15.4 µM
[22] = RPMI 5 mM glucose + 10% FBS, 46.1 µM
[23] = RPMI 5 mM glucose + 10% dialyzed FBS, 0.000781 µM
[24] = RPMI 5 mM glucose + 10% dialyzed FBS, 0.00234 µM
[25] = RPMI 5 mM glucose + 10% dialyzed FBS, 0.00702 µM
[26] = RPMI 5 mM glucose + 10% dialyzed FBS, 0.0211 µM
[27] = RPMI 5 mM glucose + 10% dialyzed FBS, 0.0632 µM
[28] = RPMI 5 mM glucose + 10% dialyzed FBS, 0.19 µM
[29] = RPMI 5 mM glucose + 10% dialyzed FBS, 0.569 µM
[30] = RPMI 5 mM glucose + 10% dialyzed FBS, 1.71 µM
[31] = RPMI 5 mM glucose + 10% dialyzed FBS, 5.12 µM
[32] = RPMI 5 mM glucose + 10% dialyzed FBS, 15.4 µM
[33] = RPMI 5 mM glucose + 10% dialyzed FBS, 46.1 µM

C[C@]12CC[C@H]3[C@@H](CC[C@@]45O[C@@H]4C(O)=C(C#N)C[C@]35C)[C@@H]1CC[C@@H]2O
cell viability [1]: 89.7%
cell viability [2]: 79.7%
cell viability [3]: 102%
cell viability [4]: 97.3%
cell viability [5]: 109%
cell viability [6]: 106%
cell viability [7]: 108%
cell viability [8]: 111%
cell viability [9]: 89.6%
cell viability [10]: 86.3%
cell viability [11]: 12.4%
cell viability [12]: 90.9%
cell viability [13]: 84.7%
cell viability [14]: 95.5%
cell viability [15]: 86%
cell viability [16]: 90.4%
cell viability [17]: 81.4%
cell viability [18]: 75.4%
cell viability [19]: 84.6%
cell viability [20]: 56.9%
cell viability [21]: 58.8%
cell viability [22]: 4.92%
cell viability [23]: 116%
cell viability [24]: 107%
cell viability [25]: 121%
cell viability [26]: 105%
cell viability [27]: 114%
cell viability [28]: 102%
cell viability [29]: 110%
cell viability [30]: 110%
cell viability [31]: 87.2%
cell viability [32]: 52.8%
cell viability [33]: 5.45%

CC(C)[C@H]1C(=O)N[C@H](CO)Cc2c[nH]c3cccc(c23)N1C
cell viability [1]: 82.3%
cell viability [2]: 78.3%
cell viability [3]: 90.7%
cell viability [4]: 105%
cell viability [5]: 114%
cell viability [6]: 75.6%
cell viability [7]: 85.6%
cell viability [8]: 78.9%
cell viability [9]: 57.9%
cell viability [10]: 64.7%
cell viability [11]: 76.6%
cell viability [12]: 83%
cell viability [13]: 74%
cell viability [14]: 91.9%
cell viability [15]: 114%
cell viability [16]: 99.1%
cell viability [17]: 78.3%
cell viability [18]: 92.3%
cell viability [19]: 74.2%
cell viability [20]: 47.9%
cell viability [21]: 50.2%
cell viability [22]: 61.3%
cell viability [23]: 89.7%
cell viability [24]: 90.8%
cell viability [25]: 99.7%
cell viability [26]: 114%
cell viability [27]: 102%
cell viability [28]: 80.6%
cell viability [29]: 104%
cell viability [30]: 104%
cell viability [31]: 67.1%
cell viability [32]: 74.1%
cell viability [33]: 88.4%

COc1cc(N2CCC(N3CCN(C)CC3)CC2)ccc1Nc1ncc(Cl)c(Nc2ccccc2[S+](=O)([O-])C(C)C)n1
cell viability [1]: 50.9%
cell viability [2]: 55.6%
cell viability [3]: 75.8%
cell viability [4]: 89.1%
cell viability [5]: 127%
cell viability [6]: 84.1%
cell viability [7]: 89.4%
cell viability [8]: 19.3%
cell viability [9]: 22%
cell viability [10]: 17.5%
cell viability [11]: 13.6%
cell viability [12]: 48.1%
cell viability [13]: 57.5%
cell viability [14]: 93.2%
cell viability [15]: 105%
cell viability [16]: 117%
cell viability [17]: 84.1%
cell viability [18]: 72.7%
cell viability [19]: 16.1%
cell viability [20]: 12.9%
cell viability [21]: 8.26%
cell viability [22]: 4.14%
cell viability [23]: 58.8%
cell viability [24]: 63.1%
cell viability [25]: 86.6%
cell viability [26]: 117%
cell viability [27]: 119%
cell viability [28]: 86.2%
cell viability [29]: 90.1%
cell viability [30]: 17.8%
cell viability [31]: 14.9%
cell viability [32]: 15%
cell viability [33]: 11.9%

Cc1nnc(C(C)C)n1[C@@H]1C[C@H]2CC[C@@H](C1)N2CC[C@H](NC(=O)C1CCC(F)(F)CC1)c1ccccc1
cell viability [1]: 83.1%
cell viability [2]: 90.9%
cell viability [3]: 95.8%
cell viability [4]: 95%
cell viability [5]: 77.2%
cell viability [6]: 98.3%
cell viability [7]: 105%
cell viability [8]: 98%
cell viability [9]: 102%
cell viability [10]: 64.9%
cell viability [11]: 57.1%
cell viability [12]: 78.9%
cell viability [13]: 74.3%
cell viability [14]: 82.2%
cell viability [15]: 93.4%
cell viability [16]: 86.1%
cell viability [17]: 103%
cell viability [18]: 84.9%
cell viability [19]: 85.6%
cell viability [20]: 86.1%
cell viability [21]: 43.6%
cell viability [22]: 38.6%
cell viability [23]: 84.6%
cell viability [24]: 90.5%
cell viability [25]: 101%
cell viability [26]: 90.1%
cell viability [27]: 88.9%
cell viability [28]: 103%
cell viability [29]: 87.8%
cell viability [30]: 103%
cell viability [31]: 105%
cell viability [32]: 51.8%
cell viability [33]: 40.2%

Nc1ncnc2nc(-c3ccc(N4CCOCC4)nc3)cc(-c3cccc(Br)c3)c12
cell viability [1]: 109%
cell viability [2]: 107%
cell viability [3]: 115%
cell viability [4]: 118%
cell viability [5]: 114%
cell viability [6]: 122%
cell viability [7]: 117%
cell viability [8]: 115%
cell viability [9]: 109%
cell viability [10]: 110%
cell viability [11]: 96.5%
cell viability [12]: 93.2%
cell viability [13]: 124%
cell viability [14]: 77.9%
cell viability [15]: 111%
cell viability [16]: 114%
cell viability [17]: 110%
cell viability [18]: 104%
cell viability [19]: 105%
cell viability [20]: 114%
cell viability [21]: 106%
cell viability [22]: 83%
cell viability [23]: 125%
cell viability [24]: 124%
cell viability [25]: 102%
cell viability [26]: 133%
cell viability [27]: 125%
cell viability [28]: 127%
cell viability [29]: 132%
cell viability [30]: 126%
cell viability [31]: 133%
cell viability [32]: 123%
cell viability [33]: 93%

O=C(Nc1ccccc1)Nc1ccc(-c2ccc(C(=O)[C@@H]3CCC[C@H]3C(=O)O)cc2)cc1
cell viability [1]: 101%
cell viability [2]: 111%
cell viability [3]: 101%
cell viability [4]: 110%
cell viability [5]: 110%
cell viability [6]: 103%
cell viability [7]: 99.8%
cell viability [8]: 107%
cell viability [9]: 108%
cell viability [10]: 106%
cell viability [11]: 105%
cell viability [12]: 102%
cell viability [13]: 102%
cell viability [14]: 111%
cell viability [15]: 108%
cell viability [16]: 109%
cell viability [17]: 99.5%
cell viability [18]: 114%
cell viability [19]: 97.6%
cell viability [20]: 94.6%
cell viability [21]: 91.2%
cell viability [22]: 114%
cell viability [23]: 109%
cell viability [24]: 103%
cell viability [25]: 107%
cell viability [26]: 124%
cell viability [27]: 104%
cell viability [28]: 99.7%
cell viability [29]: 101%
cell viability [30]: 95.4%
cell viability [31]: 113%
cell viability [32]: 107%
cell viability [33]: 123%

Cc1cccc(-c2[nH]c(C(C)(C)C)nc2-c2ccc3nccnc3c2)n1
cell viability [1]: 121%
cell viability [2]: 121%
cell viability [3]: 120%
cell viability [4]: 131%
cell viability [5]: 123%
cell viability [6]: 125%
cell viability [7]: 124%
cell viability [8]: 121%
cell viability [9]: 117%
cell viability [10]: 97.7%
cell viability [11]: 11.1%
cell viability [12]: 95.9%
cell viability [13]: 85.8%
cell viability [14]: 89.7%
cell viability [15]: 95.9%
cell viability [16]: 91.2%
cell viability [17]: 81.1%
cell viability [18]: 89%
cell viability [19]: 67.9%
cell viability [20]: 82%
cell viability [21]: 64.9%
cell viability [22]: 6.89%
